Literature values, collected in US20080044496A1, “ARTHRITIS PHYTO-NUTRACEUTICAL SYNERGISTIC COMPOSITION” (priority 2006, published 2008).

System: human rheumatoid arthritis synoviocytes

C[C@@H]1CC[C@@]2(OC1)O[C@H]1C[C@H]3[C@@H]4CC=C5C[C@@H](O)CC[C@]5(C)[C@H]4CC[C@]3(C)[C@H]1[C@@H]2C [diosgenine]
apoptosis: induces apoptosis
